Assay results reported in patent US10251849B2, “Sublingual compositions including epinephrine nanoparticles” (NOVA SOUTHEASTERN UNIVERSITY, priority 2012, dated 2019).
Counter-ions that a name gives are not always drawn. Like-named read-outs stand apart in the source and are kept apart here.

Legend:
[1] = Experimental: Supernatant solution was withdrawn and filtered through 0.22 μm nylon syringe filters to be analyzed for the quantification of dissolved epinephrine.
Analysis and condition were performed according to USP 26th edition, 2003 “Epinephrine Injection Monograph.”

[2] = UV absorptivity of oxidative products of epinephrine at 310 nm; format: physicochemical; settings: controls, not stored, 4 mg/mL
Experimental: The supernatant was visually inspected against white background for any discoloration (USP/NF. Official Monograph: Epinephrine Injection. 31/26 ed. Rockville, Md.: United States Pharmacopeial Convention, Inc.; 2008) and then filtered and diluted to make 4 mg/mL. […] The absorptivity of all samples and controls was calculated by dividing the absorbance by the product of the concentration of the drug (g/L) and the path length (cm) of the cell used to measure the absorbance (USP/NF. Physical Tests: Spectrophotometery and Light-Scattering (851). 31/26 ed. Rockville, Md.: United States Pharmacopeial Convention, Inc.; 2008).
The absorptivity of oxidative products of epinephrine in the tablets from each formulation at each storage condition and in controls was statistically compared by two-way ANOVA and Tukey-Kramer tests.

[3] = remark: listed apart in the source
Experimental: Samples were prepared in triplicates for each concentration, n=3. All prepared samples were processed using LV-1 High Shear Fluid Processor “Microfluidizer” (Microfluidics, Newton, Mass.) equipped with G10Z reaction chamber under various pressures ranging from 15 to 30 KPsi for single or several passes. The microfluidizer-receiving coil was immersed in ice to reduce the heat produced during the process for heat-sensitive drugs. The particle size and potential of the produced nanosuspension were measured. The nanosuspension was centrifuged at 15,000 rpm and 15° C. for 30 minutes to collect the nanoparticles, and the solvent was then removed. The collected nanoparticles were completely dried by speed vacuum concentrator or lyophilization.
(§1) Nanoparticle Characterization: The particle size distribution and zeta potential of the nanosuspension was measured before and after size reduction by volume and by intensity using Mastersizer (Malvern) and Zetasizer Nano-ZS90 (Malvern), respectively. The average of 3 measurements for each sample was reported.

[4] = various concentrations
Experimental: as §1

CNC[C@H](O)c1ccc(O)c(O)c1 [Epinephrine Base, epinephrine]
Amount Dissolved ([1]; solubility in water): 53.37 µg/mL

CNC[C@H](O)c1ccc(O)c(O)c1 [epinephrine bitartrate, (−)-3,4-dihydroxy-α-[(methylamino)methyl]benzyl alcohol (+)-tartrate (1:1) salt]
Absorptivity of Oxidative Products of Epinephrine (Mean ± SD) [2]: 0.001 ± 0.000
Amount Dissolved ([1]; solubility in acetone): 31.28 µg/mL
Amount Dissolved ([1]; solubility in acetonitrile): 15.46 µg/mL
Amount Dissolved ([1]; solubility in chloroform): 1.87 µg/mL
Amount Dissolved ([1]; solubility in ethyl acetate): 12.60 µg/mL
Amount Dissolved ([1]; solubility in hexane): 0.53 µg/mL
Amount Dissolved ([1]; solubility in isopropyl alcohol): 12.30 µg/mL
Amount Dissolved ([1]; solubility in methanol): 209.01 µg/mL
Amount Dissolved ([1]; solubility in tetrahydrofuran (THF)): 155.18 µg/mL
Mean ± SD particles size ([3]; 0 passes, before processing, n = 6): 131,800 ± 10500 nm
polydispersity (pdi) ([3]; 0.7 mg/ml, 1 pass at 30 KPsi): (0.257 + 0.060)
polydispersity (pdi) ([3]; 0.7 mg/ml, 2 passes at 30 KPsi): (0.119 ± 0.052)
polydispersity (pdi) ([3]; 0.7 mg/ml, 4 passes at 30 KPsi): (0.217 ± 0.035)
polydispersity (pdi) ([3]; 0.7 mg/ml, 5 passes at 30 KPsi): (0.170 ± 0.070)
polydispersity (pdi) ([3]; 0.7 mg/ml, 6 passes at 30 KPsi): (0.195 ± 0.067)
polydispersity (pdi) ([3]; 1.4 mg/ml, 1 pass at 30 KPsi): (0.239 + 0.044)
polydispersity (pdi) ([3]; 1.4 mg/ml, 2 passes at 30 KPsi): (0.158 ± 0.021)
polydispersity (pdi) ([3]; 1.4 mg/ml, 4 passes at 30 KPsi): (0.178 ± 0.039)
polydispersity (pdi) ([3]; 3.5 mg/ml, 1 pass at 30 KPsi): (0.335 + 0.112)
polydispersity (pdi) ([3]; 3.5 mg/ml, 2 passes at 30 KPsi): (0.576 ± 0.080)
polydispersity (pdi) ([3]; 4.5 mg/ml, 1 pass at 30 KPsi): (0.321 + 0.060)
polydispersity (pdi) ([3]; 4.5 mg/ml, 2 passes at 30 KPsi): (0.315 ± 0.055)
particle size before size reduction ([3]; as stated in summary text): 150.7±5 μm
10th percentile (Dv0.1) ([3]; before processing, n = 6): 39.8 ± 3.0 μm
90th percentile (Dv0.9) ([3]; before processing, n = 6): 254.8 ± 20.1
median (Dv0.5) ([3]; before processing, n = 6): 113.6 ± 9.1 μm
color of the fabricated nanosuspension [4]: no change in color
